What was measured:
Type in all cases: cell-based
[1] = system: tyrosinase; experiment: Stimulation of tyrosinase activity in cultured human melanocytes; settings: for TA compared to 10 nM αMSH: tyrosinase activity, cultured human melanocytes
Experimental: Peptides were tested on cultured human melanocytes for their capacity for stimulating tyrosinase activity, the rate-limiting enzyme for melanin synthesis. Melanocytes were treated every other day, for a total of 6 days, with increasing concentrations of peptides. Medium containing H^3-tyrosine, the substrate for tyrosinase, was added to melanocytes 24 hours before the end of the 6-day treatment. Tyrosinase activity was measured by determining the amount of ^3H2O generated as […] is catalyzed by tyrosinase for melanin synthesis.
(§1) Peptides were tested as described in Example 4 above on cultured human melanocytes for their capacity to activate MC1R, as measured by stimulating cAMP formation, and for their capacity for stimulating tyrosinase activity, the rate-limiting enzyme for melanin synthesis. The tested peptides were synthesized according to the formula: Ar(CH2)mX^1—X^2—CO—X^3—X^4—X^5-(Trp)n-NX^6R wherein X^1 and X^2 are absent, X^3 is His, X^5 is Arg, and X^6 is H. X^4 amino acids were in the D-stereoisomer form, unless otherwise noted.

[2] = target: T1, MC1R (Homo sapiens, UniProt Q01726); experiment: Stimulation of cAMP formation in cultured human melanocytes; parameters: endogenous in cells; host or cells: cultured human melanocytes; settings: for cAMP compared to 10 nM αMSH: cultured human melanocytes
Experimental: Peptides were tested on cultured human melanocytes for their capacity to activate MC1R, as measured by stimulating cAMP formation. After 45 minutes of treatment with different concentrations of peptides, cAMP levels were measured using a I^125-labeled radioimmunoassay kit.
as §1

[3] = target: T1, MC1R; experiment: cAMP stimulation in heterologous cells expressing hMC1R; parameters: expressed in transfected cells; settings: cAMP, heterologous cells
Experimental: (§2) Receptor selectivity of peptide agonists for hMC1R was determined by stimulation of cAMP in heterologous cells expressing different human melanocortin receptors (MC1R, MC3R, MC4R, and MC5R).

[4] = target: T2, hMC5R (Homo sapiens, UniProt P33032); experiment: cAMP stimulation in heterologous cells expressing hMC5R; settings: cAMP, heterologous cells
T2 construct: expressed in transfected cells
Experimental: as §2

T1 sequence (Q01726 whole entry): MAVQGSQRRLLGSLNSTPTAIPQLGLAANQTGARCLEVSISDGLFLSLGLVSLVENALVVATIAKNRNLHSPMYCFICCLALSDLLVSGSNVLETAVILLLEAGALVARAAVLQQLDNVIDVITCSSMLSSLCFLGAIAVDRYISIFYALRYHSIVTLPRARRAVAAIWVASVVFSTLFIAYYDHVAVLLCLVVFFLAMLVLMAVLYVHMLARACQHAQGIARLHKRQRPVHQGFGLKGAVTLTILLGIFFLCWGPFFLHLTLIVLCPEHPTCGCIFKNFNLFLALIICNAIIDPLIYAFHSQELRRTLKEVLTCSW
T2 sequence (P33032 whole entry): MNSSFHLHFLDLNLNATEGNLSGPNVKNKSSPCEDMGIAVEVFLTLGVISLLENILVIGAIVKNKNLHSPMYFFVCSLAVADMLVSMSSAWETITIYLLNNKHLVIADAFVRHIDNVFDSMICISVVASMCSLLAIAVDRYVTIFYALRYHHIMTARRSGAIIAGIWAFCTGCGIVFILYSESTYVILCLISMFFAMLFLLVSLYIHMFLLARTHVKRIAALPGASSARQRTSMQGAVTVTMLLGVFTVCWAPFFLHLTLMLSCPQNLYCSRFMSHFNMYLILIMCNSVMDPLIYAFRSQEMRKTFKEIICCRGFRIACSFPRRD

Substance | cAMP compared to 10 nM αMSH [2] | further results
Ph(CH2)3CO-His-(D-2-Nal)-Arg-NH2 [515P] | – | TA compared to 10 nM αMSH [1]: <<
Ph(CH2)3CO-His-(D-2-Nal)-Arg-NHEt [492P] | NR (NR = No Response/inactive at 10 nM) | –
Ph(CH2)3CO-His-(D-2-Nal)-Arg-NHMe [517P] | – | TA compared to 10 nM αMSH [1]: <<<
Ph(CH2)3CO-His-(D-2-Nal)-Arg-Trp-NH2 [468P] | ≤ | –
Ph(CH2)3CO-His-(D-2-Thi)-Arg-Trp-NH2 [476P] | > | –
Ph(CH2)3CO-His-(D-3-NO2Phe)-Arg-Trp-NH2 [472P] | < | –
Ph(CH2)3CO-His-(D-4-BrPhe)-Arg-Trp-NH2 [474P] | =; <; > | –
Ph(CH2)3CO-His-(D-4-ClPhe)-Arg-Trp-NH2 [473P] | =; > | –
Ph(CH2)3CO-His-(D-4-FPhe)-Arg-Trp-NH2 [470P] | > | –
Ph(CH2)3CO-His-(D-4-IPhe)-Arg-Trp-NH2 [475P] | <; > | –
Ph(CH2)3CO-His-(D-4-NO2Phe)-Arg-Trp-NH2 [471P] | = | –
Ph(CH2)3CO-His-(D-4-tBuPhe)-Arg-NHMe [516P] | – | TA compared to 10 nM αMSH [1]: <<
melanotan II [MT-II, reference compound] | – | HMC1R % MAX. ACTIVITY [3]: 103%; HMC5R % MAX. ACTIVITY [4]: 100%

The next lines start with results.

cAMP compared to 10 nM αMSH [2] | Substance | further results
<< | Ph(CH2)3CO-His-(D-4-Bip)-Arg-NHEt [493P] | –
<< | Ph(CH2)3CO-His-(D-4-tBuPhe)-Arg-NHEt [494P] | –
>* | Ph(CH2)3CO-His-(D-Phe)-Arg-Trp-NHEt [LK-487] | effect on tyrosinase activity, comparison ([1]; human melanocytes, 6 days treatment): equipotent to LK-467; potency in stimulating cAMP formation, comparison ([2]; human melanocytes, 45 minutes of treatment): equipotent to LK-467

— patent publication US10301355B2, “Method of using pharmaceutical compositions comprising selective peptide-based agonists of melanocortin 1 receptor” (University of Cincinnati, priority 2012, dated 2019)
